# From the SangsterLogP compilation
# Assay: method code SF-AS, from Ploquin, J.; Sparfel, L.; LeBaut, G.; Floc'h, R.; Welin, L.; Petit, Y.; Henry, N. (1974). Pyrophthalones. III. Properties of gamma-pyrophthalones. Eur J Med Chem, 9(5)526-533.
# Conditions: pH 7.4
row,logD,Structure (SMILES)
1,2.75,CC=CN1C=CC(=C2C(=O)c3ccccc3C2=O)C=C1
2,2.98,CC(C)CCCCCN1C=CC(=C2C(=O)c3ccccc3C2=O)C=C1
3,2.54,C=CCN1C=CC(=C2C(=O)c3ccccc3C2=O)C=C1C
4,3.27,CCCCCN1C=CC(=C2C(=O)c3ccccc3C2=O)C=C1
5,1.36,O=C1C(=C2C=CN(CC(O)CO)C=C2)C(=O)c2ccccc21 (centres undefined)
6,2.82,CC1=CC(=C2C(=O)c3ccccc3C2=O)C=CN1CC(C)C
7,2.12,CCN1C=CC(=C2C(=O)c3ccccc3C2=O)C=C1
8,1.75,CC(O)CN1C=CC(=C2C(=O)c3ccccc3C2=O)C=C1 (centres undefined)
9,2.76,CC(C)CN1C=CC(=C2C(=O)c3ccccc3C2=O)C=C1
10,3.05,CCCCN1C=CC(=C2C(=O)c3ccccc3C2=O)C=C1
11,2.34,CCN1C=CC(=C2C(=O)c3ccccc3C2=O)C=C1C
12,2.33,CC1=CC(=C2C(=O)c3ccccc3C2=O)C=CN1C(C)C
13,2.11,COCCN1C=CC(=C2C(=O)c3ccccc3C2=O)C=C1
14,3.45,CCCCCCCCCN1C=CC(=C2C(=O)c3ccccc3C2=O)C=C1
15,1.9,CC1=CC(=C2C(=O)c3ccccc3C2=O)C=CN1C
16,2.44,CC(C)N1C=CC(=C2C(=O)c3ccccc3C2=O)C=C1
17,2.99,O=C1C(=C2C=CN(Cc3ccccc3)C=C2)C(=O)c2ccccc21
18,2.46,C=CCN1C=CC(=C2C(=O)c3ccccc3C2=O)C=C1
19,2.5,CC1=CC(=C2C(=O)c3ccccc3C2=O)C=C(C)N1C
20,3.3,O=C1C(=C2C=CN(CCc3ccccc3)C=C2)C(=O)c2ccccc21
21,2.64,CCCN1C=CC(=C2C(=O)c3ccccc3C2=O)C=C1
22,2.6,CC=CN1C=CC(=C2C(=O)c3ccccc3C2=O)C=C1C
23,1.6,CN1C=CC(=C2C(=O)c3ccccc3C2=O)C=C1
24,2.63,CCCN1C=CC(=C2C(=O)c3ccccc3C2=O)C=C1C
